Laboratory results as given in patent publication US20250235545A1, “POLYPEPTIDE CONJUGATE AND USE THEREOF” (SHANGHAI CHIXI BIOMEDICAL TECHNOLOGY CO., LTD, priority 2024, published 2025).
Values after ≈ are worked out from the molar mass of the structure shown. Where two headings read alike, the source gives them in different places.

Columns and labels:
[1] = MTD determination in mice (Examples 27, 36, 44); type: in vivo; conditions: mice, monitored for 14 d
Source text: Test animals: 6-8 weeks old mice, all female; mice were grouped randomly, with six mice in each group, administered with drugs at different concentration gradients separately and monitored for 14 d. A mouse was euthanized at a loss of 20% of its initial weight and deemed to have died of poisoning.

[2] = tested on: colo320 colorectal cancer tumor model; conditions: 5 mg/kg once a week for four weeks
Protocol: Test objective: To investigate the antitumor efficacy of the above compounds in an animal tumor model of colo320 colorectal cancer.
(§1) Test drug: Polypeptide conjugate, Irinotecan, Belotecan and normal saline control group.
(§2) Test animals: 6-8 weeks old BALB/c mice, all female.
(§3) Passaging was performed every three days, and cells within 15 generations were used. 7.5×10^6 corresponding cells were injected into right chests of nude mice subcutaneously. After a volume of the tumors reached at least 120 mm^3, the mice were grouped randomly, with three mice in each group. Then treatment was started, and the day when the treatment was started was the first day. […] The control group was administered with normal saline. Administration was performed once a week for four weeks.

[3] = tested on: sarcoma SJSA-1 tumor model; conditions: 5 mg/kg once a week for three weeks
Protocol: Test objective: To investigate the antitumor efficacy of the above compounds in an animal tumor model of sarcoma SJSA-1.
as §1, §2
as §3, with “SJSA-1 cells were purchased from ATCC and cultured in a DMEM medium containing 10% fetal bovine serum at 37° C. in 5% CO2. Passaging” for “Passaging”, “2×10^7” for “7.5×10^6”, “100” for “120”, “three” for “four”
as §3, with “SJSA-1 cells were purchased from ATCC and cultured in a DMEM medium containing 10% fetal bovine serum at 37° C. in 5% CO2. Passaging” for “Passaging”, “2×10^7” for “7.5×10^6”, “100” for “120”, “three” for “four”

[4] = tested on: colo320 (colorectal cancer tissue); assay: cells; type: cell-based; conditions: CCK8, 48 h; Table 6
Protocol: (§4) Different types of cells were cultured with complete media (RPMI1640 (DMEM high sugar medium)+10% fetal bovine serum+1×P/S+sodium pyruvate 1 mM solution) in an incubator at 37° C. and 5% CO2 until the cells grew to a sufficient number, and the cells were collected, centrifuged at 1,000 g for 5 min, resuspended with an appropriate volume of a 10% RMPI1640 (DMEM high sugar medium) medium and adjusted to an appropriate density. In a 96-well culture plate, 100 μL of cell culture fluid containing different concentrations of drugs was added, control wells (0.1% DMSO) with only corresponding drug solvents without drugs, as well as blank wells (Blank) with only the medium but without cells were set, and three parallel wells were set in each group. After that, the cells after cell counting were inoculated onto 96-well culture plates, with 100 μL of cell suspension per well, and an inoculation concentration of the cells was 5,000 cells (100 μL)/well. The plates were then cultured in a CO2 (5%) incubator at 37° C. for 48 h. After 48 h, 10 μL of a cell proliferation staining reagent (CCK8) was added to each well, the plates were incubated in a cell incubator for around 2 h, and an absorbance at 450 nm was detected.
(§5) Cell survival rates and median inhibitory concentrations (IC50) of the drugs on the cells were calculated.

[5] = tested on: A2780 (ovarian cancer); assay: cells; type: cell-based; conditions: CCK8, 48 h; for IC50 A2780 (ovarian cancer): Table 1; for IC50 Ovarian cancer tissue (A2780): Table 6
Protocol: as §4, with “serum+1XP/S+sodium” for “serum+1×P/S+sodium”, “counted.” for “adjusted to an appropriate density.”
(§6) Cell survival rates and median inhibitory concentrations of the drugs on the cells were calculated.
as §4, §5

[6] = tested on: SJSA-1 (sarcoma tissue); assay: cells; type: cell-based; conditions: CCK8, 48 h; for IC50 SJSA-1 (sarcoma tissue): Table 1; for IC50 Sarcoma tissue (SJSA-1): Table 6
Protocol: as §4, with “serum+1XP/S+sodium” for “serum+1×P/S+sodium”, “counted.” for “adjusted to an appropriate density.”
as §6, §4, §5

[7] = tested on: A549 (non-small cell lung cancer); assay: cells; type: cell-based; conditions: CCK8, 48 h; for IC50 A549 (non-small cell lung cancer): Table 1; for IC50 Non-small cell lung cancer tissue (A549): Table 6
Protocol: as §4, with “serum+1XP/S+sodium” for “serum+1×P/S+sodium”, “counted.” for “adjusted to an appropriate density.”
as §6, §4, §5

[8] = tested on: SKBR3 (breast cancer tissue); assay: cells; type: cell-based; conditions: CCK8, 48 h; for IC50 SKBR3 (breast cancer tissue): Table 1; for IC50 Breast cancer tissue (SKBR3): Table 6
Protocol: as §4, with “serum+1XP/S+sodium” for “serum+1×P/S+sodium”, “counted.” for “adjusted to an appropriate density.”
as §6, §4, §5

Row | SMILES | MTD ([1]; Table 4) | MTD ([1]; Table 9) | Mouse weight (%) ([2]; Table 3) | colo320 (colorectal cancer cell) growth rate (%) ([2]; Table 3) | colo320 (colorectal cancer cell) mean tumor volume (mm^3) ([2]; Table 3) | Mouse weight (%) ([2]; Table 8) | colo320 (colorectal cancer cell) growth rate (%) ([2]; Table 8) | colo320 (colorectal cancer cell) mean tumor volume (mm^3) ([2]; Table 8) | Mouse weight (%) ([3]; Table 2) | SJSA-1 (sarcoma tissue) mean tumor volume (mm^3) ([3]; Table 2) | SJSA-1 (sarcoma) Growth rate (%) ([3]; Table 2) | Mouse weight (%) ([3]; Table 7) | SJSA-1 (sarcoma tissue) growth rate (%) ([3]; Table 7) | SJSA-1 (sarcoma tissue) mean tumor volume (mm^3) ([3]; Table 7) | IC50 Colorectal cancer tissue (colo320) [4] | IC50 A2780 (ovarian cancer) [5] | IC50 Ovarian cancer tissue (A2780) [5] | IC50 SJSA-1 (sarcoma tissue) [6] | IC50 Sarcoma tissue (SJSA-1) [6] | IC50 A549 (non-small cell lung cancer) [7] | other results
1 | CC[C@@]1(O)C(=O)OCc2c1cc1n(c2=O)Cc2c-1nc1ccccc1c2CCNC1CCC1 [D7] | 15 mg/kg | 15 mg/kg | −8% | 1136.64% | 1258.9 mm^3 | −8% | 1136.64% | 1258.9 mm^3 | −7% | 1369.5 mm^3 | 1185.01% | −7% | 1185.01% | 1369.5 mm^3 | 17 ng/mL (≈ 0.0382 µM) | 4.3 ng/mL (≈ 0.00965 µM) | 4.3 ng/mL (≈ 0.00965 µM) | 8.4 ng/mL (≈ 0.0189 µM) | 8.4 ng/mL (≈ 0.0189 µM) | 7.4 ng/mL (≈ 0.0166 µM) | IC50 Non-small cell lung cancer tissue (A549) [7]: 7.4 ng/mL (≈ 0.0166 µM); IC50 SKBR3 (breast cancer tissue) [8]: 16 ng/mL (≈ 0.0359 µM); IC50 Breast cancer tissue (SKBR3) [8]: 16 ng/mL (≈ 0.0359 µM)
2 | CC[C@@]1(O)C(=O)OCc2c1cc1n(c2=O)Cc2c-1nc1ccccc1c2CCNC1CC1 [D6] | 10 mg/kg | 10 mg/kg | −4% | 715.73% | 787.3 mm^3 | −4% | 710.84% | 787.3 mm^3 | +4% | 961.3 mm^3 | 828.71% | +4% | 831.80% | 961.3 mm^3 | 4.8 ng/mL (≈ 0.0111 µM) | 2.9 ng/mL (≈ 0.00672 µM) | 2.9 ng/mL (≈ 0.00672 µM) | 1.8 ng/mL (≈ 0.00417 µM) | 1.8 ng/mL (≈ 0.00417 µM) | 2.5 ng/mL (≈ 0.00579 µM) | IC50 Non-small cell lung cancer tissue (A549) [7]: 2.5 ng/mL (≈ 0.00579 µM); IC50 SKBR3 (breast cancer tissue) [8]: 3.8 ng/mL (≈ 0.00881 µM); IC50 Breast cancer tissue (SKBR3) [8]: 3.8 ng/mL (≈ 0.00881 µM)
3 | CC[C@@]1(O)C(=O)OCc2c1cc1n(c2=O)Cc2c-1nc1ccccc1c2CCNCC(C)C [D5] | 30 mg/kg | 30 mg/kg | +8% | 991.91% | 1098.6 mm^3 | +8% | 991.91% | 1098.6 mm^3 | −5% | 1443.2 mm^3 | 1248.78% | −5% | 1248.78% | 1443.2 mm^3 | 29 ng/mL (≈ 0.0648 µM) | 14 ng/mL (≈ 0.0313 µM) | 14 ng/mL (≈ 0.0313 µM) | 12 ng/mL (≈ 0.0268 µM) | 12 ng/mL (≈ 0.0268 µM) | 19 ng/mL (≈ 0.0425 µM) | IC50 Non-small cell lung cancer tissue (A549) [7]: 19 ng/mL (≈ 0.0425 µM); IC50 SKBR3 (breast cancer tissue) [8]: 13 ng/mL (≈ 0.029 µM); IC50 Breast cancer tissue (SKBR3) [8]: 13 ng/mL (≈ 0.029 µM)
